Results on 24 molecules are retold here after PMC7998309, “Structural-Based Optimizations of the Marine-Originated Meridianin C as Glucose Uptake Agents by Inhibiting GSK-3β” (Marine Drugs, 2021).

Each structure is given as a SMILES string.

The subject of data set [1] is HepG2 cells. The data set is described as follows: Cell glucose uptake assay in HepG2 cells. In kind it is cell-based, human. Particulars: relative glucose uptake at 5 µM in HepG2 cells, 3 h, compared with original glucose concentration of the medium; na = not active at 5 µM. The method, then:
(§1) The hepatocyte cell line HepG2 cells obtained from the Type Culture Collection of the Chinese Academy of Sciences (Shanghai, China) were maintained in high-glucose DMEM (Gibco) supplemented with 10% fetal bovine serum (FBS) and 1% penicillin-streptomycin in an atmosphere of 5% CO2 at 37 °C.
Into a 96-well plate, 5 × 10^3 HepG2 cells per well were seeded. After 48 h, phenol red-free DMEM (Gibco) with 1% FBS was transferred to deprive the cells overnight, and then the tested compounds dissolved in a glucose-HEPES buffer (glucose concentration was 100 µg/mL) at a concentration of 5 µM were added to the culture system. Three hours later, the culture supernatants were collected and the glucose concentrations were detected using the Glucose (GO) Assay Kit (Sigma-Aldrich Corp.). Compared with the original glucose concentration of the buffer, the relative glucose uptake was calculated.

Data set [2] in a line: MTT assay for cell viability (cytotoxicity). In kind it is cell-based, human. Particulars: human; HepG2 cells, 48 h incubation, MTT. The method, then: as §1
(§2) Into a 96-well plate, 1 × 10^3 HepG2 cells per well were seeded. After 24 h, stock solutions of test compounds in DMSO were diluted in DMEM to ≤0.1% final DMSO concentration. Cells were treated with various concentrations (2.5–25 µM) of tested compounds for 48 h, and the MTT solution (0.5 mg/mL) was added. After 4 h of incubation at 37 °C for MTT-formazan formation, the supernatant was discarded and 100 µL of DMSO was applied into each well to dissolve formazan crystals. Absorbance at 490 nm was determined spectrophotometrically by using a microplate reader (Epoch, BioTek Instruments, Inc., Winooski, VT, USA).
Background: Tetrazolium dyes change colour on reduction, which living cells bring about.

The target of a further data set is T1, human GSK-3β (Homo sapiens, UniProt P49841).
T1 construct: purchased Invitrogen
Kind of data set: Inhibition of recombinant GSK-3β (Z-lyte assay). In kind it is biochemical. Particulars: for IC50: human GSK-3β, top concentration 30 μM. The method, then:
The activity of recombinant GSK-3β (Invitrogen) was measured in a Z-lyte assay of Invitrogen. In this assay, 100 nL of the compound solution in DMSO was transferred to a 384-well assay plate (the compound got threefold serial dilution, and the top concentration of the compound was 30 μM in the final reaction mixture). Then 5 μL of an enzyme (2 nM) and Ser/Thr 9 peptide (4 μM) mixture was added. After the enzyme and peptide pre-incubation with the compound for 30 min at 23 °C, 5 μL of ATP (12 μM) solution was added. The plate was incubated for 60 min at 23 °C. The reaction was stopped with 5 μL of development reagent. Fluorescence signals were detected with Envision (PerkinElmer, America) after 30 min of incubation, and the emission ratio (RFU 460 nm/RFU 535 nm) was used to analyze the data. The relative IC50 was reported using four-parameter logistic fit of IDBS Xlfit software. The IC50 values were calculated using the following equation: %Phosphorylation = 1 - (Emission Ratio × F100%) - C100%/(C0% - C100%) + [Emission Ratio × (F100% - F0%)] where
Emission ratio = Coumarin/Fluorescein ratio of sample wells
C100% = Average coumarin emission signal of the 100% phos. control
C0% = Average coumarin emission signal of the 0% phos. control
F100% = Average fluorescein emission signal of the 100% phos. control
F0% = Average fluorescein emission signal of the 0% phos. control %Inhibition = {1 - %Phos Sample/%Phos 0%Inhibition Ctl}*100

The test system of data set [3] is HepG2 cells. The data set is described as follows: MTT assay for cell viability (cytotoxicity). In kind it is cell-based, human. As to the method: as §1, §2

T1 sequence (P49841 whole entry): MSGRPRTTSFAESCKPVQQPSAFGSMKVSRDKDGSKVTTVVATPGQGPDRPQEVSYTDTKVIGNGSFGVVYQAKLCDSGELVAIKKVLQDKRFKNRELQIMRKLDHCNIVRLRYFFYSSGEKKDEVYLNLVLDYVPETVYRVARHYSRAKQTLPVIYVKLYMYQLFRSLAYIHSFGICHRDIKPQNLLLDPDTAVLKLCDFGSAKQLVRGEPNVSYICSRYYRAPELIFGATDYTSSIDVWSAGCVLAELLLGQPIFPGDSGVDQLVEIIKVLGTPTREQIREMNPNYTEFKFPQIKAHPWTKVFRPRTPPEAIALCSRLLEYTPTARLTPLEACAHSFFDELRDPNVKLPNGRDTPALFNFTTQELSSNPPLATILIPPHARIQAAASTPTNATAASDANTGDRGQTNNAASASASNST

The term CC50 denotes the concentration giving 50% cytotoxicity. A lower CC50 goes with greater toxicity to the cells. As usually defined, the IC50 is the concentration that inhibits the measured activity by half. One may read the melting point as the temperature of the solid-liquid transition. Molecule `Nc1ncc(-c2ccc(NC(=O)c3ccccc3Br)cc2)c(-c2c[nH]c3ccc(Br)cc23)n1` [A13, N-(4-(2-amino-4-(5-bromo-1H-indol-3-yl)pyrimidin-5-yl)phenyl)-2-bromobenzamide] showed a melting point of 147.4 to 148.3 °C. The “Cell Glucose Uptake (%)” value in the data set with HepG2 cells [1] came to 27%. This molecule returned a CC50 at 48 h in data set [2] above 25 µM. At human GSK-3β, the “inhibitory activity against GSK-3β at 30 µM (in words)” value is “no apparent inhibitory activity” and the IC50 was above 30 µM.
`Cc1ccc(C(=O)Nc2ccc(-c3cnc(N)nc3-c3c[nH]c4ccc(Br)cc34)cc2)cc1` [A21, N-(4-(2-amino-4-(5-bromo-1H-indol-3-yl)pyrimidin-5-yl)phenyl)-4-methylbenzamide]: the melting point lay within 291.7 to 292.4 °C. The “Cell Glucose Uptake (%)” value with HepG2 cells [1] is recorded as 24%. The molecule also had a cytotoxic concentration (CC50) at 48 h in data set [2] of 6.9 µM.
Consider `Nc1ncc(-c2ccc(NC(=O)c3cc(Cl)cc(Cl)c3)cc2)c(-c2c[nH]c3ccc(Br)cc23)n1` [A26, N-(4-(2-amino-4-(5-bromo-1H-indol-3-yl)pyrimidin-5-yl)phenyl)-3,5-dichlorobenzamide], for which the melting point lay in the range of 177.7 to 178.5 °C. Moreover, in the data set on HepG2 cells [1], the “Cell Glucose Uptake (%)” value worked out at 22%. This molecule came in with a cytotoxic concentration (CC50) at 48 h in data set [2] of 14.3 µM. Moreover, on human GSK-3β, the “inhibitory activity against GSK-3β at 30 µM (in words)” value is recorded as “no apparent inhibitory activity” and the IC50 was above 30 µM.
`Fc1ccccc1Nc1nccc(-c2c[nH]c3ccc(Br)cc23)n1` [B1, 4-(5-Bromo-1H-indol-3-yl)-N-(2-fluorophenyl) pyrimidin-2-amine] yielded a melting point of 206.6 to 207.1 °C. The “Cell Glucose Uptake (%)” value with HepG2 cells [1] was 20%. The molecule also came in with a CC50 at 48 h in data set [2] of 10.5 µM.
`Fc1cccc(Nc2nccc(-c3c[nH]c4ccc(Br)cc34)n2)c1` [B2, 4-(5-Bromo-1H-indol-3-yl)-N-(3-fluorophenyl) pyrimidin-2-amine] returned a melting point of 211.8 to 212.4 °C. For the same molecule, the “Cell Glucose Uptake (%)” value with HepG2 cells [1] is listed as “no change”. The molecule further yielded a CC50 at 48 h in data set [2] of 10.7 µM.
In the case of `Fc1ccc(Nc2nccc(-c3c[nH]c4ccc(Br)cc34)n2)cc1` [B3, 4-(5-Bromo-1H-indol-3-yl)-N-(4-fluorophenyl) pyrimidin-2-amine], the melting point lay within 246.8 to 247.7 °C. In the data set on HepG2 cells [1], the “Cell Glucose Uptake (%)” value is 7.4%. In data set [2], this molecule showed a CC50 at 48 h of 12.8 µM.
The like results for `Clc1ccccc1Nc1nccc(-c2c[nH]c3ccc(Br)cc23)n1` [B4, 4-(5-Bromo-1H-indol-3-yl)-N-(2-chlorophenyl) pyrimidin-2-amine] were, in that order, 173.8 to 174.6 °C, 22% and above 25 µM.
Consider `Clc1ccc(Nc2nccc(-c3c[nH]c4ccc(Br)cc34)n2)cc1` [B6, 4-(5-Bromo-1H-indol-3-yl)-N-(4-chlorophenyl) pyrimidin-2-amine], for which the melting point was 273.5 to 274.8 °C. Also, the “Cell Glucose Uptake (%)” value with HepG2 cells [1] was 14.4%. The molecule further had a CC50 at 48 h in data set [2] of 21.1 µM.
`Brc1ccc2[nH]cc(-c3ccnc(Nc4ccccc4Br)n3)c2c1` [B7, 4-(5-Bromo-1H-indol-3-yl)-N-(2-bromophenyl) pyrimidin-2-amine] showed a melting point of 177.8 to 178.4 °C. The “Cell Glucose Uptake (%)” value in the data set on HepG2 cells [1] came to 26%. The molecule also returned a CC50 at 48 h in data set [2] above 25 µM.
Take `Brc1ccc(Nc2nccc(-c3c[nH]c4ccc(Br)cc34)n2)cc1` [B9, 4-(5-Bromo-1H-indol-3-yl)-N-(4-bromophenyl) pyrimidin-2-amine]: the melting point lay within 276.7 to 277.5 °C. Moreover, the “Cell Glucose Uptake (%)” value in the data set with HepG2 cells [1] turned out to be 12.6%. Moreover, in data set [2], it took 20.3 µM to reach half-maximal cytotoxicity (CC50 at 48 h).
In turn, `FC(F)(F)c1ccccc1Nc1nccc(-c2c[nH]c3ccc(Br)cc23)n1` [B10, 4-(5-Bromo-1H-indol-3-yl)-N-(2-(trifluoromethyl)phenyl) pyrimidin-2-amine] registered a melting point of 150.5 to 151.3 °C. Besides, in the data set on HepG2 cells [1], the “Cell Glucose Uptake (%)” value turned out to be 20.2%. For the same molecule, the CC50 at 48 h in data set [2] is above 25 µM.
Regarding `Cc1ccccc1Nc1nccc(-c2c[nH]c3ccc(Br)cc23)n1` [B13, 4-(5-Bromo-1H-indol-3-yl)-N-(o-tolyl) pyrimidin-2-amine], the melting point was in the range of 187.6 to 188.4 °C. For the same molecule, the “Cell Glucose Uptake (%)” value in the data set with HepG2 cells [1] is on record as 14.9%. The 50% cytotoxic concentration (CC50) at 48 h in data set [2] is above 25 µM.
The like results for `COc1ccccc1Nc1nccc(-c2c[nH]c3ccc(Br)cc23)n1` [B16, 4-(5-Bromo-1H-indol-3-yl)-N-(2-methoxyphenyl) pyrimidin-2-amine] were, in that order, 207.9 to 208.3 °C, 17% and 21.4 µM.
In the same order, the values of `COc1ccc(Nc2nccc(-c3c[nH]c4ccc(Br)cc34)n2)cc1` [B18, 4-(5-Bromo-1H-indol-3-yl)-N-(4-methoxyphenyl) pyrimidin-2-amine] are 245.7 to 246.3 °C, 6.1% and 6 µM.
In turn, `CC(C)c1ccccc1Nc1nccc(-c2c[nH]c3ccc(Br)cc23)n1` [B19, 4-(5-Bromo-1H-indol-3-yl)-N-(2-isopropylphenyl) pyrimidin-2-amine] showed a melting point of 110.5 to 111.3 °C. Also, the “Cell Glucose Uptake (%)” value with HepG2 cells [1] is recorded as 13%. In data set [2], this molecule showed a CC50 at 48 h above 25 µM.
As to `Clc1cc(Cl)cc(Nc2nccc(-c3c[nH]c4ccc(Br)cc34)n2)c1` [B24, 4-(5-Bromo-1H-indol-3-yl)-N-(3,5-dichlorophenyl) pyrimidin-2-amine], the melting point lay in the range of 223.6 to 224.3 °C. Also, the CC50 at 48 h in data set [2] is 10.5 µM.
As for `Brc1cc(Br)cc(Nc2nccc(-c3c[nH]c4ccc(Br)cc34)n2)c1` [B25, 4-(5-Bromo-1H-indol-3-yl)-N-(3,5-dibromophenyl) pyrimidin-2-amine], the melting point lay in the range of 193.4 to 193.7 °C. The CC50 at 48 h in data set [2] is above 25 µM.
`FC(F)(F)c1cc(Nc2nccc(-c3c[nH]c4ccc(Br)cc34)n2)cc(C(F)(F)F)c1` [B26, N-(3,5-bis(trifluoromethyl)phenyl)-4-(5-bromo-1H-indol-3-yl) pyrimidin-2-amine] showed a melting point of 220.9 to 221.3 °C. This molecule also returned a half-maximal cytotoxic concentration (CC50) at 48 h in data set [2] of 11.8 µM.
Turning to `Cc1cc(C)cc(Nc2nccc(-c3c[nH]c4ccc(Br)cc34)n2)c1` [B27, 4-(5-Bromo-1H-indol-3-yl)-N-(3,5-dimethylphenyl) pyrimidin-2-amine], the melting point lay within 184.6 to 185.3 °C. Moreover, in data set [2], the CC50 at 48 h came out at 6 µM.
For the molecule `COc1cc(Nc2nccc(-c3c[nH]c4ccc(Br)cc34)n2)cc(OC)c1` [B28, 4-(5-Bromo-1H-indol-3-yl)-N-(3,5-dimethoxyphenyl) pyrimidin-2-amine], the melting point lay in the range of 255.6 to 256.8 °C. This molecule also gave a CC50 at 48 h in data set [2] of 10 µM.
Turning to `Fc1cccc(F)c1Nc1nccc(-c2c[nH]c3ccc(Br)cc23)n1` [B29, 4-(5-Bromo-1H-indol-3-yl)-N-(2,6-difluorophenyl) pyrimidin-2-amine], the melting point is 263.3 to 264.2 °C. For the same molecule, the “Cell Glucose Uptake (%)” value with HepG2 cells [1] stood at 29%. The “toxicity against HepG2 cells (in words)” value with HepG2 cells [3] is recorded as “no significant toxicity”. In addition, the half-maximal cytotoxic concentration (CC50) at 48 h in data set [2] was found to be 22.4 µM. For the same molecule, on human GSK-3β, the concentration for half-maximal inhibition (IC50) is 5.85 µM.
With `COc1cccc(OC)c1Nc1nccc(-c2c[nH]c3ccc(Br)cc23)n1` [B31, 4-(5-Bromo-1H-indol-3-yl)-N-(2,6-dimethoxyphenyl) pyrimidin-2-amine], the melting point lay in the range of 244.3 to 245.6 °C. For the same molecule, the “Cell Glucose Uptake (%)” value in the data set on HepG2 cells [1] came out at 16%. In data set [2], the CC50 at 48 h was 19.2 µM.
With `Cn1sc(=O)n(Cc2ccccc2)c1=O` [TDZD-8, 4-benzyl-2-methyl-1,2,4-thiadiazolidine-3,5-dione, reference compound], in the data set with HepG2 cells [1], the “Cell Glucose Uptake (%)” value was determined as 16%. The CC50 at 48 h in data set [2] was above 25 µM.
In the same order, the values of `Nc1nccc(-c2c[nH]c3ccc(Br)cc23)n1` [meridianin C] are below 5% and 13 µM.
